In the assay the target is LSD-1 enzyme (Homo sapiens (Human), UniProt O60341). The assay can be described thus: LANCE LSD1/KDM1A demethylase assay (LSD1 histone demethylase biochemical assay). Particulars: 1 nM LSD-1 enzyme, 1 hour preincubation at 25° C., 0.4 μM Biotin-labeled Histone H3 peptide substrate. As to the method:
Example A: LSD1 histone demethylase biochemical assay
LANCE LSD1/KDM1A demethylase assay—10 μL of 1 nM LSD-1 enzyme (ENZO BML-SE544-0050) in the assay buffer (50 mM Tris, pH 7.5, 0.01% Tween-20, 25 mM NaCl, 5 mM DTT) were preincubated for 1 hour at 25° C. with 0.8 μL compound/DMSO dotted in black 384 well polystyrene plates. Reactions were started by addition of 10 μL of assay buffer containing 0.4 μM Biotin-labeled Histone H3 peptide substrate: ART-K(Me1)-[…]-GGK(Biotin) SEQ ID NO: 1 (AnaSpec 64355) and incubated for 1 hour at 25° C. Reactions were stopped by addition of 10 μL 1× LANCE Detection Buffer (PerkinElmer CR97-100) supplemented with 1.5 nM Eu-anti-unmodified H3K4 Antibody (PerkinElmer TRF0404), and 225 nM LANCE Ultra Streptavidin (PerkinElmer TRF102) along with 0.9 mM Tranylcypromine-HCl (Millipore 616431). After stopping the reactions plates were incubated for 30 minutes and read on a PHERAstar FS plate reader (BMG Labtech).

IC50 data for 31 compounds are collected here from patent US10513493B2, “Cyclopropylamines as LSD1 inhibitors” (Incyte Corporation, priority 2014, dated 2019).

Consider `COCC1(CN[C@@H]2C[C@H]2c2ccccc2)CCN(c2cccc(C(=O)O)n2)CC1` [Example 24, 6-[4-(methoxymethyl)-4-({[(1R,2S)-2-phenylcyclopropyl]amino}methyl)piperidin-1-yl]pyridine-2-carboxylic acid], for which the 50% inhibitory concentration (IC50) (in general, the concentration at which inhibition is half-maximal) was less than 100 nM.

In turn, `N#Cc1cc(F)c(N2CC(CN[C@@H]3C[C@H]3c3ccccc3)C2)c(F)c1` (relative stereo) [Example 2, 3,5-Difluoro-4-[3-({[trans-2-phenylcyclopropyl]amino}methyl)azetidin-1-yl]benzonitrile] displayed a half-maximal inhibitory concentration (IC50) of less than 100 nM.

Regarding `CC1(CN[C@@H]2C[C@H]2c2ccccc2)CCN(c2ccnc(C(=O)O)c2)CC1` [Example 27, 4-[4-methyl-4-({[(1R,2S)-2-phenylcyclopropyl]amino}methyl)piperidin-1-yl]pyridine-2-carboxylic acid], the IC50 was less than 100 nM.

On to `N#Cc1ccc(N2CC(CN[C@@H]3C[C@H]3c3ccccc3)C2)c(F)c1` (relative stereo) [Example 1, 3-Fluoro-4-[3-({[trans-2-phenylcyclopropyl]amino}methyl)azetidin-1-yl]benzonitrile], for which the IC50 is less than 100 nM.

Consider `CC1(CN[C@@H]2C[C@H]2c2ccccc2)CCN(c2ccc(C(=O)O)nc2)CC1` [Example 25, 5-[4-methyl-4-({[(1R,2S)-2-phenylcyclopropyl]amino}methyl)piperidin-1-yl]pyridine-2-carboxylic acid], for which the IC50 was less than 100 nM.

As for `CNC(=O)c1ccc(N2CCC(C)(CN[C@@H]3C[C@H]3c3ccccc3)CC2)cn1` [Example 29, N-methyl-5-[4-methyl-4-({[(1R,2S)-2-phenylcyclopropyl]amino}methyl)piperidin-1-yl]pyridine-2-carboxamide], the 50% inhibitory concentration (IC50) is less than 100 nM.

For `O=C(O)C1(c2ccc(N3CCC(CN[C@@H]4C[C@H]4c4ccccc4)(Cc4ccc(F)cc4)CC3)cc2)CC1` [Example 22, 1-{4-[4-(4-fluorobenzyl)-4-({[(1R,2S)-2-phenylcyclopropyl]amino}methyl)piperidin-1-yl]phenyl}cyclopropanecarboxylic acid], the IC50 was less than 100 nM.

In turn, `CC(C)NC(=O)c1c(F)cc(N2CC(CN[C@@H]3C[C@H]3c3ccccc3)C2)cc1F` (relative stereo) [Example 7, 2,6-Difluoro-N-isopropyl-4-(3-{[(trans-2-phenylcyclopropyl)amino]methyl}azetidin-1-yl)benzamide] registered a half-inhibitory concentration (IC50) of less than 100 nM.

Regarding `CC1(CN[C@@H]2C[C@H]2c2ccccc2)CCN(c2cccc(C(=O)O)n2)CC1` [Example 26, 6-[4-methyl-4-({[(1R,2S)-2-phenylcyclopropyl]amino}methyl)piperidin-1-yl]pyridine-2-carboxylic acid], the IC50 was less than 100 nM.

`Cn1cc(N2CC(CN[C@@H]3C[C@H]3c3ccccc3)C2)cn1` (relative stereo) [Example 17, trans-N-{[1-(1-Methyl-1H-pyrazol-4-yl)azetidin-3-yl]methyl}-2-phenylcyclopropanamine]: the IC50 was less than 100 nM.

Turning to `Cc1nc(N2CC(CN[C@@H]3C[C@H]3c3ccccc3)C2)ccc1C#N` (relative stereo) [Example 4, 2-Methyl-6-[3-({[trans-2-phenylcyclopropyl]amino}methyl)azetidin-1-yl]nicotinonitrile], the IC50 is less than 100 nM.

Take `CC(C)NC(=O)c1ccc(N2CC(CN[C@@H]3C[C@H]3c3ccccc3)C2)c(Cl)c1` (relative stereo) [Example 14, 3-Chloro-N-isopropyl-4-(3-{[(trans-2-phenylcyclopropyl)amino]methyl}azetidin-1-yl)benzamide]: the half-inhibitory concentration (IC50) is less than 100 nM.

The compound `Cc1cc(C(=O)NC(C)C)c(F)cc1N1CC(CN[C@@H]2C[C@H]2c2ccccc2)C1` (relative stereo) [Example 12, 2-Fluoro-N-isopropyl-5-methyl-4-(3-{[(trans-2-phenylcyclopropyl)amino]methyl}azetidin-1-yl)benzamide] showed an IC50 of less than 100 nM.

With `N#CCC1(CN[C@@H]2C[C@H]2c2ccccc2)CCN(c2cccc(Cl)c2C#N)CC1` (relative stereo) [Example 18, 2-Chloro-6-(4-(cyanomethyl)-4-{[(trans-2-phenylcyclopropyl)amino]methyl}piperidin-1-yl)benzonitrile], the half-inhibitory concentration (IC50) is less than 100 nM.

In turn, `CC(C)NC(=O)c1cc(F)c(N2CC(CN[C@@H]3C[C@H]3c3ccccc3)C2)c(F)c1` (relative stereo) [Example 6, 3,5-Difluoro-N-isopropyl-4-(3-{[(trans-2-phenylcyclopropyl)amino]methyl}azetidin-1-yl)benzamide] showed an IC50 of less than 100 nM.

Take `N#CCC1(CN[C@@H]2C[C@H]2c2ccccc2)CCN(c2ncccc2C(F)(F)F)CC1` (relative stereo) [Example 19, {4-{[(trans-2-Phenylcyclopropyl)amino]methyl}-1-[3-(trifluoromethyl)pyridin-2-yl]piperidin-4-yl}acetonitrile]: the half-maximal inhibitory concentration (IC50) is less than 100 nM.

Take `CCNC(=O)c1cnc(N2CC(CN[C@@H]3C[C@H]3c3ccccc3)C2)cn1` (relative stereo) [Example 5, N-Ethyl-5-(3-{[(trans-2-phenylcyclopropyl)amino]methyl}azetidin-1-yl)pyrazine-2-carboxamide]: the 50% inhibitory concentration (IC50) was less than 100 nM.

For `O=C(O)c1cccc(N2CCC(CN[C@@H]3C[C@H]3c3ccccc3)(Cc3ccc(F)cc3)CC2)n1` [Example 20, 6-[4-(4-fluorobenzyl)-4-({[(1R,2S)-2-phenylcyclopropyl]amino}methyl)piperidin-1-yl]pyridine-2-carboxylic acid], the IC50 was less than 100 nM.

Take `O=C(O)c1ccc(N2CCC(CN[C@@H]3C[C@H]3c3ccccc3)(Cc3ccc(F)cc3)CC2)cn1` [Example 21, 5-[4-(4-fluorobenzyl)-4-({[(1R,2S)-2-phenylcyclopropyl]amino}methyl)piperidin-1-yl]pyridine-2-carboxylic acid]: the IC50 was less than 100 nM.

`Nc1ccnc(N2CCC(N[C@H]3C[C@@H]3c3ccccc3)CC2)n1` [Example 31, 2-(4-{[(1S,2R)-2-phenylcyclopropyl]amino}piperidin-1-yl)pyrimidin-4-amine] had an IC50 of 100 to 500 nM.

As for `CC(C)NC(=O)c1ccc(N2CC(CN[C@@H]3C[C@H]3c3ccccc3)C2)c(F)c1F` (relative stereo) [Example 8, 2,3-Difluoro-N-isopropyl-4-(3-{[(trans-2-phenylcyclopropyl)amino]methyl}azetidin-1-yl)benzamide], the IC50 is less than 100 nM.

For the compound `CC(C)NC(=O)c1cc(F)c(N2CC(CN[C@@H]3C[C@H]3c3ccccc3)C2)cc1Cl` (relative stereo) [Example 9, 2-Chloro-5-fluoro-N-isopropyl-4-(3-{[(trans-2-phenylcyclopropyl)amino]methyl}azetidin-1-yl)benzamide], the IC50 is less than 100 nM.

Compound `O=C(NC1(C(F)(F)F)CC1)c1ccc(N2CC(CN[C@@H]3C[C@H]3c3ccccc3)C2)cn1` (relative stereo) [Example 15, 5-(3-{[(trans-2-Phenylcyclopropyl)amino]methyl}azetidin-1-yl)-N-[1-(trifluoromethyl)cyclopropyl]pyridine-2-carboxamide] yielded an IC50 of less than 100 nM.

For the compound `CC(C)NC(=O)c1cc(F)c(N2CC(CN[C@@H]3C[C@H]3c3ccccc3)C2)cc1F` (relative stereo) [Example 3, 2,5-Difluoro-N-isopropyl-4-(3-{[(trans-2-phenylcyclopropyl)amino]methyl}azetidin-1-yl)benzamide], the IC50 was less than 100 nM.

Compound `COCC1(CN[C@@H]2C[C@H]2c2ccccc2)CCN(c2ccnc(C(=O)O)c2)CC1` [Example 23, 4-[4-(methoxymethyl)-4-({[(1R,2S)-2-phenylcyclopropyl]amino}methyl)piperidin-1-yl]pyridine-2-carboxylic acid] registered a 50% inhibitory concentration (IC50) of less than 100 nM.

Consider `Nc1ccnc(N2CCC(N[C@@H]3C[C@H]3c3ccccc3)CC2)n1` [Example 30, 2-(4-{[(1R,2S)-2-phenylcyclopropyl]amino}piperidin-1-yl)pyrimidin-4-amine], for which the IC50 is less than 100 nM.

Compound `CC(C)NC(=O)c1ccc(N2CC(CN[C@@H]3C[C@H]3c3ccccc3)C2)c(F)c1` (relative stereo) [Example 10, 3-Fluoro-N-isopropyl-4-(3-{[(trans-2-phenylcyclopropyl)amino]methyl}azetidin-1-yl)benzamide] returned a concentration for half-maximal inhibition (IC50) of less than 100 nM.

In the case of `CC(C)NC(=O)c1ccc(N2CC(CN[C@@H]3C[C@H]3c3ccccc3)C2)cc1F` (relative stereo) [Example 11, 2-Fluoro-N-isopropyl-4-(3-{[(trans-2-phenylcyclopropyl)amino]methyl}azetidin-1-yl)benzamide], the half-inhibitory concentration (IC50) is less than 100 nM.

In turn, `COc1cc(N2CC(CN[C@@H]3C[C@H]3c3ccccc3)C2)ccc1C(=O)NC(C)C` (relative stereo) [Example 13, N-Isopropyl-2-methoxy-4-(3-{[(trans-2-phenylcyclopropyl)amino]methyl}azetidin-1-yl)benzamide] registered a 50% inhibitory concentration (IC50) of less than 100 nM.

`CN(C)C(=O)c1ccc(N2CCC(C)(CN[C@@H]3C[C@H]3c3ccccc3)CC2)cn1` [Example 28, N,N-dimethyl-5-[4-methyl-4-({[(1R,2S)-2-phenylcyclopropyl]amino}methyl)piperidin-1-yl]pyridine-2-carboxamide]: the IC50 is less than 100 nM.

As to `CN1CCN(c2cc(N3CC(CN[C@@H]4C[C@H]4c4ccccc4)C3)ncn2)CC1` (relative stereo) [Example 16, N-({1-[6-(4-Methylpiperazin-1-yl)pyrimidin-4-yl]azetidin-3-yl}methyl)-trans-2-phenylcyclopropanamine], the 50% inhibitory concentration (IC50) was less than 100 nM.
